In paper PMC2192203 (The Journal of Experimental Medicine, 1995):

How the values were obtained:
[1] = system: lymph node cells from mice immunized with the peptide; assay: Lymph node / spleen T cell proliferation assay of peptide-immunized mice; format: cell-based, mouse
[2] = system: CD4+ T cell line P69.2 (Ed-restricted, Ld 61-80-specific); assay: T cell line P69.2 proliferation assay; format: cell-based, mouse; settings: for natural presentation of self-peptide: no exogenously added peptide
[3] = system: CD4+ T cell line B10.A-P11.2 (Ek-restricted, Ld 61-80-specific); assay: T cell line B10.A-P11.2 proliferation assay; format: cell-based, mouse; settings: no added peptide
[4] = system: BALB/c-dm2 lymph node T cells primed with Ld 61-80; assay: T cell determinant mapping with overlapping 12 mers; format: cell-based, mouse; settings: dm2 mice primed with Ld 61-80, single residue steps, Fig. 4
[5] = system: lymph node cells from mice immunized with the peptide; settings: syngeneic B10.A mice; cited from earlier work
[6] = system: T cells from Ld 61-80-primed B10.A mice; settings: H-2k class II-restricted; cited from earlier work
[7] = system: MHC class II-restricted presentation by APCs; settings: cited from earlier work
[8] = system: I-Ek MHC class II molecules; settings: Fig. 2 A legend; control peptide; no reference given; cited from earlier work
[9] = target: I-Ed MHC class II molecules (Mus musculus, UniProt P01904+P01915); settings: Fig. 2 B legend; control peptide; no reference given; cited from earlier work

Substance: EtLITQIAKGQEQWFILVNLR,T [Ld 61-80]
- immunogenicity ([1]; (B10.A x B10.D2) F1 mice (Fig. 1 D)): immunogenic and therefore cryptic
- phenotype of self-peptide (cryptic or dominant) ([1]; A.TL and B10.MBR mice): cryptic
- immunogenicity ([1]; A/J mice (Table 1)): vigorous T cell responses
- phenotype of self-peptide (cryptic or dominant) ([1]; B10.A(5R) mice): dominant
- T cell proliferation after immunization ([1]; B10.A(5R) mice (Fig. 6), five mice tested individually): no T cell proliferation was detected
- immunogenicity ([1]; B10.AKM mice (Table 2)): immunogenic
- immunogenicity ([1]; B10.D2 mice (Table 1)): failed to respond
- immunogenicity ([1]; BALB/c mice (Fig. 1 B)): nonimmunogenic
- immunogenicity ([1]; DBA/2 mice (Table 1)): nonimmunogenic
- immunogenicity ([1]; dm2 mutant mice, not expressing Ld (Fig. 1 C)): immunogenic
- phenotype of self-peptide (cryptic or dominant) ([1]; parental H-2s and H-2b mice): dominant
- natural presentation of self-peptide ([2]; (B10.A x B10.D2) F1 APCs, Fig. 3 C): could not spontaneously process and present
- stimulation of P69.2 in presence of specific peptide ([2]; B10.GD splenocytes (lacking Ed) as APCs): could not stimulate
- natural presentation of self-peptide ([2]; BALB/c APCs, Fig. 3 B): continuously process and present
- stimulation of P69.2 by added peptide ([2]; dm2 APCs, 60 h, [3H]thymidine last 12 h, Fig. 3 B): required
- natural presentation of self-peptide ([3]; B10.A splenocytes, Fig. 3 A): did not naturally process
- natural presentation of self-peptide ([3]; B10.A(5R) APCs, Fig. 7): present spontaneously
- core region of determinant (residues) [4]: 69-76
- T cell response induced [5]: potent MHC class II-restricted T cell responses
- core region of determinant (residues) [6]: 66-74
- in vitro presentation by BALB/c APCs ([7]; BALB/c APCs, self-MHC class II): regularly presented in vitro
- stimulation of Ld 61-80-specific class II-restricted T cell hybridoma ([7]; Ii-positive and -negative APCs): could be stimulated in the presence of both Ii- positive and -negative APCs
- TAP-1 requirement of class II presentation [7]: does not require a functional TAP-1 protein

Substance: HEL 1-17: known binder peptide in the I-Ek competition assay (KVFGRCELAAAMKRHGL; UniProt P00698 19-35, looked up, fragment)
- binding to I-Ek (control designation) [8]: known binder

Substance: HEL 105-120: hen egg white lysozyme (HEL) 105-120 peptide known for its binding to Ed (MNAWVAWRNRCKGTDV; UniProt P00698 123-138, looked up, fragment)
- binding to I-Ed (control designation) [9]: known binder
